# Calls of active or inactive are those of the source. The rule behind the calls is not given here.
# Tests used:
# [1] = tested on: Zea mays; test: Effect on GSH content in Zea mays (maize) shoot at 50 uM applied to seeds incubated for 5 days by DNTB-based spectrophotometric analysis relative to control; format: functional, organism-based
# [2] = tested on: Zea mays; test: Safening activity against acetochlor-induced phytotoxicity against Zea mays (maize) assessed as increase in shoot length at 50 uM applied pre-emergence measured 14 days after treatment relative to acetochlor-treated control; format: functional
# [3] = tested on: Zea mays; test: Increase in GSH content in Zea mays (maize) shoot at 50 uM applied to seeds incubated for 5 days by DNTB-based spectrophotometric analysis relative to control; format: functional
# [4] = tested on: Zea mays; test: Decrease in GST activity in Zea mays (maize) root at 50 uM applied to seeds incubated for 5 days by CDNB-based spectrophotometric analysis relative to control; format: functional, organism-based
# [5] = tested on: Zea mays; test: Increase in GST activity in Zea mays (maize) shoot at 50 uM applied to seeds incubated for 5 days by [14C]acetochlor-based liquid scintillation assay relative to control; format: functional
# [6] = tested on: Zea mays; test: Decrease in GSH content in Zea mays (maize) root at 50 uM applied to seeds incubated for 5 days by DNTB-based spectrophotometric analysis relative to control; format: functional, organism-based
# [7] = tested on: Zea mays; test: Increase in GST activity in Zea mays (maize) shoot at 50 uM applied to seeds incubated for 5 days by CDNB-based spectrophotometric analysis relative to control; format: functional, organism-based
# [8] = tested on: Zea mays; test: Increase in GST activity in Zea mays (maize) root at 50 uM applied to seeds incubated for 5 days by CDNB-based spectrophotometric analysis relative to control; format: functional
# [9] = tested on: Zea mays; test: Increase in GST activity in Zea mays (maize) root at 50 uM applied to seeds incubated for 5 days by [14C]acetochlor-based liquid scintillation assay relative to control; format: functional
# [10] = tested on: Zea mays; test: Increase in GSH content in Zea mays (maize) root at 50 uM applied to seeds incubated for 5 days by DNTB-based spectrophotometric analysis relative to control; format: functional
# [11] = tested on: Zea mays; test: Effect on GST activity in Zea mays (maize) shoot at 50 uM applied to seeds incubated for 5 days by CDNB-based spectrophotometric analysis relative to control; format: functional, organism-based
# [12] = tested on: Zea mays; test: Effect on GST activity in Zea mays (maize) root at 50 uM applied to seeds incubated for 5 days by [14C]acetochlor-based liquid scintillation assay relative to control; format: functional, organism-based
Compound,Activity [1],Activity [2],Activity [3],further results
CC(C)COC(OCC(C)C)C(Cl)Cl,inactive,24%,,
CCCCOC(C)(OCCCC)C(Cl)Cl,inactive,,,
CCOC(CBr)OCC [BROMOACETAL],,60%,Active,Activity [4]: Active; fold change (FC) [5]: 3.76
ClC(Cl)C1OCCCO1,inactive,24%,,Activity [6]: Active
CCOC(OCC)C(Cl)Cl,inactive,24%,,Activity [4]: Active; Activity [7]: Active
ClC(Cl)C1OCCCCCCO1,inactive,24%,,fold change (FC) [8]: 4
CC1(C(Cl)Cl)OCCO1,inactive,64%,Active,fold change (FC) [9]: 3.64; fold change (FC) [5]: 3.93; Activity [7]: Active
ClC(Cl)C1(c2ccccc2)OCCO1,inactive,Active,,fold change (FC) [10]: >2; fold change (FC) [3]: >2; Activity [7]: Active
ClC(Cl)C1OCCO1,inactive,24%,,Activity [6]: Active
CCOC(CCl)OCC [MONOCHLOROACETAL],,24%,Active,Activity [4]: Active
CC1(C)COC(C(Cl)Cl)OC1,inactive,24%,,Activity [6]: Active
ClC(Cl)C1OCCCCCO1,inactive,24%,,fold change (FC) [8]: 2; Activity [6]: Active
CC1(C(Cl)Cl)OCCCCCO1,inactive,Active,Active,Activity [7]: Active
CCOC(C)(OCC)C(Cl)Cl,inactive,62%,inactive,Activity [10]: inactive
C=CCNC(=O)CCl [N-ALLYL-2-CHLOROACETAMIDE],,48%,,fold change (FC) [10]: 2.25; fold change (FC) [3]: 2.25; Activity [11]: inactive
CCCOC(OCCC)C(Cl)Cl,inactive,24%,,
CCOCN(C(=O)CCl)c1c(C)cccc1CC,,,,Activity [9]: Active; Activity [5]: Active
ClC(Cl)C1OCCCCO1,inactive,24%,,Activity [6]: Active
C=CCN(CC=C)C(=O)CBr,,,,Activity [9]: Active; Activity [5]: Active; Activity [11]: inactive
CC(C)COC(C)(OCC(C)C)C(Cl)Cl,inactive,,,fold change (FC) [5]: 4.72
C=CCN(CC=C)C(=O)CCl,,,,Activity [9]: Active; Activity [5]: Active; Activity [11]: inactive
C=CCN(CC=C)C(=O)C(Cl)Cl [DICHLORMID],,81%,,fold change (FC) [10]: 1.65; fold change (FC) [3]: 1.78; Activity [11]: inactive
CCCCOC(OCCCC)C(Cl)Cl,inactive,24%,,
CC1(C)COC(C)(C(Cl)Cl)OC1,inactive,Active,Active,Activity [7]: Active
CC1(C(Cl)Cl)OCCCO1,inactive,68%,Active,Activity [7]: Active
CC1(C(Cl)Cl)OCCCCO1,inactive,70%,Active,Activity [12]: inactive; Activity [7]: Active
CC1(C(Cl)Cl)OCCCCCCO1,inactive,Active,Active,Activity [7]: Active
CCCOC(C)(OCCC)C(Cl)Cl,inactive,63%,inactive,Activity [10]: inactive
